Calls of active or inactive are those of the source. The calls are words filed in the database; no cut-off is given here.
Key:
786-0 = test: Growth inhibition of human 786-0 cells after 48 hrs by SRB assay; format: functional; conditions: 786-0, 48 h
TK-10 = test: Growth inhibition of human TK10 cells after 48 hrs by SRB assay; format: functional; conditions: TK-10, 48 h
MDA-MB-231 = test: Growth inhibition of human MDA-MB-231 cells after 48 hrs by SRB assay; format: functional; conditions: MDA-MB-231, 48 h
SR = test: Growth inhibition of human SR cells after 48 hrs by SRB assay; format: functional
HL-60(TB) = test: Growth inhibition of human HL-60(TB) cells after 48 hrs by SRB assay; format: functional; conditions: HL-60, 48 h
NCI-H460 = test: Growth inhibition of human NCI-H460 cells after 48 hrs by SRB assay; format: functional; conditions: NCI-H460, 48 h
M14 = test: Growth inhibition of human M14 cells after 48 hrs by SRB assay; format: functional; conditions: M14, 48 h
MCF7 [1] = test: Cell cycle arrest in human MCF7 cells assessed as accumulation at G0/G1 phase at 4 uM after 24 hrs by propidium iodide staining-based flow cytometry (reference value: 64.04%); format: functional
[2] = Growth inhibition of human NCI-ADR-RES cells after 48 hrs by SRB assay; format: functional
[3] = Growth inhibition of human HCC2998 cells after 48 hrs by SRB assay; format: functional; conditions: HCC 2998, 48 h
NCI-H226 = test: Growth inhibition of human NCI-H226 cells after 48 hrs by SRB assay; format: functional; conditions: NCI-H226, 48 h
HCT-116 = test: Growth inhibition of human HCT116 cells after 48 hrs by SRB assay; format: functional; conditions: HCT-116, 48 h
U-251 = test: Growth inhibition of human U251 cells after 48 hrs by SRB assay; format: functional; conditions: U-251, 48 h
[4] = Growth inhibition of human BT549 cells after 48 hrs by SRB assay; format: functional; conditions: BT-549, 48 h
MDA-MB-435 = test: Growth inhibition of human MDA-MB-435 cells after 48 hrs by SRB assay; format: functional; conditions: MDA-MB-435, 48 h
[5] = Growth inhibition of human HCT15 cells after 48 hrs by SRB assay; format: functional; conditions: HCT-15, 48 h
MCF7 [6] = test: Growth inhibition of human MCF7 cells after 48 hrs by SRB assay; format: functional; conditions: MCF7, 48 h
SK-OV-3 = test: Growth inhibition of human SKOV3 cells after 48 hrs by SRB assay; format: functional; conditions: SK-OV-3, 48 h
[7] = Growth inhibition of human SF295 cells after 48 hrs by SRB assay; format: functional; conditions: SF-295, 48 h
[8] = Growth inhibition of human UACC62 cells after 48 hrs by SRB assay; format: functional; conditions: UACC-62, 48 h
SN12C = test: Growth inhibition of human SN12C cells after 48 hrs by SRB assay; format: functional
[9] = Growth inhibition of human SF539 cells after 48 hrs by SRB assay; format: functional; conditions: SF-539, 48 h
[10] = Growth inhibition of human OVCAR5 cells after 48 hrs by SRB assay; format: functional; conditions: OVCAR-5, 48 h
IGROV-1 = test: Growth inhibition of human IGROV1 cells after 48 hrs by SRB assay; format: functional; conditions: IGROV-1, 48 h
COLO 205 = test: Growth inhibition of human COLO205 cells after 48 hrs by SRB assay; format: functional; conditions: COLO 205, 48 h
HT-29 = test: Growth inhibition of human HT-29 cells after 48 hrs by SRB assay; format: functional; conditions: HT-29, 48 h
SK-MEL-2 = test: Growth inhibition of human SK-MEL-2 cells after 48 hrs by SRB assay; format: functional; conditions: SK-MEL-2, 48 h
NCI-H322M = test: Growth inhibition of human NCI-H322M cells after 48 hrs by SRB assay; format: functional
A549 = test: Growth inhibition of human A549 cells after 48 hrs by SRB assay; format: functional; conditions: A549, 48 h
Malme-3M = test: Growth inhibition of human MALME-3M cells after 48 hrs by SRB assay; format: functional
MCF7 [11] = test: Cell cycle arrest in human MCF7 cells assessed as accumulation at S phase at 4 uM after 24 hrs by propidium iodide staining-based flow cytometry (reference value: 20.17%); format: functional
[12] = Growth inhibition of human MOLT4 cells after 48 hrs by SRB assay; format: functional; conditions: MOLT-4, 48 h
RPMI-8226 = test: Growth inhibition of human RPMI8226 cells after 48 hrs by SRB assay; format: functional; conditions: RPMI-8226, 48 h
[13] = Growth inhibition of human UACC257 cells after 48 hrs by SRB assay; format: functional; conditions: UACC-257, 48 h
[14] = Growth inhibition of human OVCAR3 cells after 48 hrs by SRB assay; format: functional; conditions: OVCAR-3, 48 h
MCF7 [15] = test: Growth inhibition of human MCF7 cells assessed as cell viability at 4 uM after 24 hrs by MTT assay; format: functional, cell-based
[16] = Growth inhibition of human HOP92 cells after 48 hrs by SRB assay; format: functional; conditions: HOP-92, 48 h
KM12 = test: Growth inhibition of human KM12 cells after 48 hrs by SRB assay; format: functional; conditions: KM12, 48 h
HOP-62 = test: Growth inhibition of human HOP62 cells after 48 hrs by SRB assay; format: functional; conditions: HOP-62, 48 h
[17] = Growth inhibition of human UO31 cells after 48 hrs by SRB assay; format: functional; conditions: UO-31, 48 h
PC-3 = test: Growth inhibition of human PC3 cells after 48 hrs by SRB assay; format: functional; conditions: PC-3, 48 h
A498 = test: Growth inhibition of human A498 cells after 48 hrs by SRB assay; format: functional; conditions: A498, 48 h
MDA-MB-468 = test: Growth inhibition of human MDA-MB-468 cells after 48 hrs by SRB assay; format: functional; conditions: MDA-MB-468, 48 h
SK-MEL-5 = test: Growth inhibition of human SK-MEL-5 cells after 48 hrs by SRB assay; format: functional; conditions: SK-MEL-5, 48 h
T47D = test: Growth inhibition of human T47D cells after 48 hrs by SRB assay; format: functional
CCRF-CEM = test: Growth inhibition of human CCRF-CEM cells after 48 hrs by SRB assay; format: functional
[18] = Growth inhibition of human LOXIMVI cells after 48 hrs by SRB assay; format: functional; conditions: LOX IMVI
[19] = Growth inhibition of human OVCAR4 cells after 48 hrs by SRB assay; format: functional; conditions: OVCAR-4, 48 h
K562 = test: Growth inhibition of human K562 cells after 48 hrs by SRB assay; format: functional; conditions: K562, 48 h
SNB-19 = test: Growth inhibition of human SNB19 cells after 48 hrs by SRB assay; format: functional; conditions: SNB-19, 48 h
[20] = Growth inhibition of human EKVX cells after 48 hrs by SRB assay; format: functional
ACHN = test: Growth inhibition of human ACHN cells after 48 hrs by SRB assay; format: functional
DU-145 = test: Growth inhibition of human DU145 cells after 48 hrs by SRB assay; format: functional; conditions: DU-145, 48 h
SNB-75 = test: Growth inhibition of human SNB75 cells after 48 hrs by SRB assay; format: functional; conditions: SNB-75, 48 h
MCF7 [21] = test: Cell cycle arrest in human MCF7 cells assessed as accumulation at G2/M phase at 4 uM after 24 hrs by propidium iodide staining-based flow cytometry (reference value: 15.79%); format: functional
CAKI-1 = test: Growth inhibition of human Caki1 cells after 48 hrs by SRB assay; format: functional; conditions: CAKI-1, 48 h
NCI-H522 = test: Growth inhibition of human NCI-H522 cells after 48 hrs by SRB assay; format: functional; conditions: NCI-H522, 48 h
[22] = Growth inhibition of human OVCAR8 cells after 48 hrs by SRB assay; format: functional; conditions: OVCAR-8, 48 h
NCI-H23 = test: Growth inhibition of human NCI-H23 cells after 48 hrs by SRB assay; format: functional; conditions: NCI-H23, 48 h
SF-268 = test: Growth inhibition of human SF268 cells after 48 hrs by SRB assay; format: functional; conditions: SF-268, 48 h

Structure (SMILES): COc1cc(C(=O)/C=C/c2c(-c3cccs3)nc3ccccn23)cc(OC)c1OC
- GI50 (786-0): 2310 nM
- GI50 (TK-10): 3.78 µM
- GI50 (MDA-MB-231): 3.08 µM
- GI50 (SR): 1230 nM
- GI50 (HL-60(TB)): 2010 nM
- GI50 (NCI-H460): 1420 nM
- GI50 (M14): 2080 nM
- Activity (MCF7 [1]): 92.41%
- GI50 [2]: 1890 nM
- GI50 [3]: 1960 nM
- GI50 (NCI-H226): 2040 nM
- GI50 (HCT-116): 1630 nM
- GI50 (U-251): 1660 nM
- GI50 [4]: 1860 nM
- GI50 (MDA-MB-435): 2490 nM
- GI50 [5]: 1600 nM
- GI50 (MCF7 [6]): 1120 nM
- GI50 (SK-OV-3): 3.01 µM
- GI50 [7]: 2240 nM
- GI50 [8]: 1610 nM
- GI50 (SN12C): 2440 nM
- GI50 [9]: 1870 nM
- GI50 [10]: 2640 nM
- GI50 (IGROV-1): 1890 nM
- GI50 (COLO 205): 1770 nM
- GI50 (HT-29): 2090 nM
- GI50 (SK-MEL-2): 2270 nM
- GI50 (NCI-H322M): 3.02 µM
- GI50 (A549): 2040 nM
- GI50 (Malme-3M): 3.65 µM
- Activity (MCF7 [11]): 6.48%
- GI50 [12]: 1770 nM
- GI50 (RPMI-8226): 1340 nM
- GI50 [13]: 1880 nM
- GI50 [14]: 2440 nM
- inhibition (MCF7 [15]): Active
- GI50 [16]: 280 nM
- GI50 (KM12): 1320 nM
- GI50 (HOP-62): 2880 nM
- GI50 [17]: 1070 nM
- GI50 (PC-3): 2630 nM
- GI50 (A498): 980 nM
- GI50 (MDA-MB-468): 1720 nM
- GI50 (SK-MEL-5): 1330 nM
- GI50 (T47D): 1720 nM
- GI50 (CCRF-CEM): 1660 nM
- GI50 [18]: 1870 nM
- GI50 [19]: 3.13 µM
- GI50 (K562): 1510 nM
- GI50 (SNB-19): 2100 nM
- GI50 [20]: 3.12 µM
- GI50 (ACHN): 2090 nM
- GI50 (DU-145): 1900 nM
- GI50 (SNB-75): 2680 nM
- Activity (MCF7 [21]): 1.11%
- GI50 (CAKI-1): 2310 nM
- GI50 (NCI-H522): 1100 nM
- GI50 [22]: 1680 nM
- GI50 (NCI-H23): 2200 nM
- GI50 (SF-268): 2370 nM

Structure (SMILES): COc1ccc(/C=C/C(=O)c2cc(OC)c(OC)c(OC)c2)cc1O
- inhibition (MCF7 [15]): Active

— ChEMBL document CHEMBL3217491, “Design, synthesis and biological evaluation of imidazopyridine/pyrimidine-chalcone derivatives as potential anticancer agents” (2010)
